The values that follow come from patent US20260327224A1, “SUBSTITUTED PYRIDOTRIAZOLE COMPOUND, AND PREPARATION METHOD THEREFOR AND USE THEREOF” (ORIGIANT PHARMACEUTICAL CO., LTD., priority 2023, published 2026).

In this assay the test system is HT-29 cells (colon cancer cells). Put plainly: In vitro assay for protection of HT-29 cells from necroptosis (TNFα/Smac mimetic/Z-VAD-FMK, CCK-8). The class given is cell-based. The note with it: Homo sapiens, Protective Activity Against Necroptosis, TNFα/Smac mimetic/Z-VAD-FMK induced, 24 h. An excerpt:
Z′=1−3(SDmin+SDmax)/(AVEmax−AVEmin) • wherein: • Min is the positive control Data, and Max is the negative control DMSO Data. • SD is the standard deviation, and AVE is the average. In Vitro Assay for Protection of HT-29 Cells from Necroptosis:
1) Experimental Materials
DMEM medium was purchased from Gibco; penicillin-streptomycin was purchased from Hyclone; TNFα was purchased from Peprotech; Smac mimetic and Z-VAD-FMK were purchased from Selleck; and CCK-8 was purchased from Medchem Express.
HT-29 cells (colon cancer cells) were cultured in DMEM+10% FBS+penicillin/streptomycin. For the experiment, HT-29 cells in the logarithmic phase were collected and seeded into 96-well plates at a specific density (typically 8×10^3 cells/well for adherent cells). The cells were cultured overnight in an incubator at 37° C. with 5% CO2. On the following day, the test compound was diluted with culture medium to the corresponding concentrations and added into the 96-well plate, with 3 replicate wells for each sample. A solvent control group and a blank control group containing only culture medium were set simultaneously. The spiked cells were induced with a combination of TNFα/Smac mimetic/Z-VAD-FMK for 24 h. Subsequently, 10 μL of CCK8 solution was added to each well, and the cells were incubated in an incubator for 1-3 h. Absorbance was measured at […] using a microplate reader, and the cell necrosis protection rate of the drug was calculated using the following formula:
Cell necrosis protection rate=[(X−C0)/(C−C0)]×100% • where C, C0, and X represent the average absorbance values of the solvent control group, the blank control group, and the drug treatment group, respectively. Finally, a cell viability curve was fitted using Graphpad Prism 5.0 software, and the EC50 value of the test compound for inhibiting necroptosis was calculated.

Turning to `CCn1cc(C(=O)N[C@@H](CF)c2ccc(F)cc2)c2cc(-c3ccn4nc(NC(=O)N5CCOCC5)nc4c3)ccc21` [Compound 200], the EC50 was less than 1 nM.

Consider `C[C@H](NC(=O)c1cn(C)c2ccc(-c3ccn4nc(NC(=O)CN5CCOCC5)nc4c3)cc12)c1ccc(Cl)cc1` [Compound 83], for which the concentration for a half-maximal effect (EC50) is less than 1 nM. As for `Cn1cc(C(=O)N[C@@H](CF)c2ccc(F)cc2)c2cc(-c3ccn4nc(NC(=O)C5CC5(F)F)nc4c3)ccc21` (stereo partly shown) [Compound 110], the figure is less than 1 nM. Regarding `Cn1cc(C(=O)N2CC(F)(F)CC2c2ccc(F)cc2)c2cc(-c3ccn4nc(NC(=O)N5CCOCC5)nc4c3)ccc21` (stereo not shown) [Compound 160], the EC50 is less than 1 nM. As for `CC1CN(CC(=O)Nc2nc3cc(-c4ccc5c(c4)c(C(=O)N[C@@H](C)c4ccc(F)cc4)cn5C)ccn3n2)CCO1` (stereo partly shown) [Compound 45], the figure is less than 1 nM; as for `C[C@H](NC(=O)c1cn(C)c2ccc(-c3ccn4nc(NC(=O)CN5CCC(N6CCOCC6)CC5)nc4c3)cc12)c1ccc(F)cc1` [Compound 38], less than 1 nM.

Consider `C[C@H](NC(=O)c1cn(C)c2ccc(-c3ccn4nc(NC(=O)CN(C)C)nc4c3)cc12)c1ccc(Cl)cc1` [Compound 78], for which the EC50 is less than 1 nM. Then `C[C@H](NC(=O)c1cn(C)c2ccc(-c3ccn4nc(NC(=O)CN5CCSCC5)nc4c3)cc12)c1ccc(F)cc1` [Compound 43], with less than 1 nM. Then `C[C@H](NC(=O)c1cn(C)c2ccc(-c3ccn4nc(NC(=O)c5cnn(C)c5)nc4c3)cc12)c1cccc(F)c1` [Compound 120], with less than 1 nM; and `Cn1cc(C(=O)N[C@@H]2C[C@H]2c2ccc(F)c(F)c2)c2cc(-c3ccn4nc(NC(=O)[C@H]5CCCO5)nc4c3)ccc21` [Compound 184], with 100 to 1000 nM; and `C[C@@H]1CN(CC(=O)Nc2nc3cc(-c4ccc5c(c4)c(C(=O)N[C@@H](C)c4ccc(F)cc4)cn5C)ccn3n2)C[C@H](C)O1` [Compound 46], with less than 1 nM. For the compound `Cn1cc(C(=O)N2CCOC[C@@H]2c2ccc(F)cc2)c2cc(-c3ccn4nc(NC(=O)C5CC5)nc4c3)ccc21` [Compound 151], the EC50 is less than 1 nM.

Take `C[C@H](NC(=O)c1cn(C)c2ccc(-c3ccn4nc(NC5CCOC5)nc4c3)cc12)c1ccc(F)cc1` (stereo partly shown) [Compound 107]: the 50% effective concentration (EC50) was less than 1 nM. For the compound `CCN(CC)CC(=O)Nc1nc2cc(-c3ccc4c(c3)c(C(=O)N[C@@H](C)c3ccc(F)cc3)cn4C)ccn2n1` [Compound 36], the EC50 was less than 1 nM.

On to `C[C@H](NC(=O)c1nn(C)c2ccc(-c3ccn4nc(NC(=O)C5CC5)nc4c3)cc12)c1ccc(F)cc1` [Compound 192], for which the 50% effective concentration (EC50) is less than 1 nM. Then `C[C@H](NC(=O)c1nn(C)c2ccc(-c3ccn4nc(NC(=O)c5cnn(C)c5)nc4c3)cc12)c1ccc(F)cc1` [Compound 191], with less than 1 nM; and `C[C@H](NC(=O)c1cn(C)c2ccc(-c3ccn4nc(NC(=O)CN5CC6CCC(C5)O6)nc4c3)cc12)c1ccc(F)cc1` [Compound 71], with less than 1 nM; and `C[C@H](NC(=O)c1cn(C)c2ccc(-c3ccn4nc(NC(=O)C5CC5)nc4c3)cc12)C(C)(C)C` [Compound 93], with 100 to 1000 nM. On to `C[C@H](NC(=O)c1cn(C)c2ccc(-c3ccn4nc(NC(=O)CN5CCCC(CO)C5)nc4c3)cc12)c1ccc(F)cc1` (stereo partly shown) [Compound 44], for which the 50% effective concentration (EC50) was 1 to 10 nM. In the case of `C[C@H](NC(=O)c1cn(C)c2ccc(-c3ccn4nc(NC(=O)CN5CCOC(C)(C)C5)nc4c3)cc12)c1ccc(F)cc1` [Compound 18], the concentration giving a half-maximal response (EC50) was less than 1 nM. Then `C[C@H](NC(=O)c1cn(C)c2ccc(-c3ccn4nc(N5CCOCC5=O)nc4c3)cc12)c1ccc(F)cc1` [Compound 218], with 10 to 100 nM; and `COC(C)C(=O)Nc1nc2cc(-c3ccc4c(c3)c(-c3nncn3C(C)c3ccc(F)cc3)cn4C)ccn2n1` (stereo not shown) [Compound 216], with 10 to 100 nM.

For `C[C@H](NC(=O)c1cn(C)c2ccc(-c3ccn4nc(NC(=O)CC(=O)O)nc4c3)cc12)c1ccc(F)cc1` [Compound 63], the half-maximal effective concentration (EC50) fell in the range of 1000 to 10000 nM. `C[C@@H](c1ccc(F)cc1)N(C)C(=O)c1cn(C)c2ccc(-c3ccn4nc(NC(=O)[C@@H]5CCCO5)nc4c3)cc12` [Compound 176]: the EC50 was less than 1 nM. As for `Cn1cc(C(=O)N2CC(F)CC2c2ccc(F)cc2)c2cc(-c3ccn4nc(NC(=O)C5CC5)nc4c3)ccc21` (stereo not shown) [Compound 156], the figure is less than 1 nM. Then `Cn1cc(C(=O)N2N=CCC2c2ccc(F)cc2)c2cc(-c3ccn4nc(NC(=O)C5CC5)nc4c3)ccc21` (stereo not shown) [Compound 170], with less than 1 nM. Consider `C[C@H](NC(=O)c1cn(C)c2ccc(-c3ccn4nc(NC(=O)CN5CCCO5)nc4c3)cc12)c1ccc(F)cc1` [Compound 22], for which the EC50 fell in the range of 1 to 10 nM. Then `C[C@H](NC(=O)c1cn(C)c2ccc(-c3ccn4nc(NC(=O)CN5CC6CC5CO6)nc4c3)cc12)c1ccc(Cl)cc1` (stereo partly shown) [Compound 79], with less than 1 nM. As to `C[C@H](NC(=O)c1cn(C)c2ccc(-c3ccn4nc(NC(=O)N5CCOCC5)nc4c3)cc12)c1cccc(F)c1` [Compound 118], the EC50 is less than 1 nM. Then `CC(C)Nc1nc2cc(-c3ccc4c(c3)c(C(=O)N[C@@H](CF)c3ccc(F)cc3)cn4C)ccn2n1` [Compound 99], with less than 1 nM; and `CN(C)CC(=O)Nc1nc2cc(-c3ccc4c(c3)c(C(=O)N[C@H]3CCc5ccc(F)cc53)cn4C)ccn2n1` [Compound 123], with 1 to 10 nM; and `CC(C(=O)Nc1nn(C)c2ccc(-c3ccn4nc(NC(=O)c5cnn(C)c5)nc4c3)cc12)c1ccc(F)cc1` (stereo not shown) [Compound 181], with 1000 to 10000 nM. As for `Cn1cc(C(=O)N[C@@H](CF)c2ccc(F)cc2)c2cc(-c3ccn4nc(NC(=O)C5CC5F)nc4c3)ccc21` (stereo partly shown) [Compound 113], the figure is 1 to 10 nM; as for `C[C@H](NC(=O)c1cn(C)c2ccc(-c3ccn4nc(NC(=O)C5(C(=O)O)CC5)nc4c3)cc12)c1ccc(F)cc1` [Compound 31], 10 to 100 nM. Consider `COCCNCC(=O)Nc1nc2cc(-c3ccc4c(c3)c(C(=O)N[C@@H](C)c3ccc(F)cc3)cn4C)ccn2n1` [Compound 68], for which the EC50 was less than 1 nM.

Turning to `Cn1cc(C(=O)N2N=CCC2c2ccc(F)cc2)c2cc(-c3ccn4nc(NC(=O)N5CCOCC5)nc4c3)ccc21` (stereo not shown) [Compound 172], the EC50 is 1 to 10 nM. For the compound `C[C@H](NC(=O)c1cn(C)c2ccc(-c3ccn4nc(NC(=O)C(N)=O)nc4c3)cc12)c1ccc(F)cc1` [Compound 11], the EC50 was in the range of 1 to 10 nM. As for `CCOC(=O)Nc1nc2cc(-c3ccc4c(c3)c(C(=O)N[C@@H](C)c3ccc(F)cc3)cn4C)ccn2n1` [Compound 17], the figure is less than 1 nM; as for `C[C@H](NC(=O)c1cn(C)c2ccc(-c3ccn4nc(NC(=O)CN5CCOC[C@@H]5C)nc4c3)cc12)c1ccc(F)cc1` [Compound 60], less than 1 nM; as for `CC(C(=O)Nc1nn(C)c2ccc(-c3ccn4nc(NC(=O)C5CC5)nc4c3)cc12)c1ccc(F)cc1` (stereo not shown) [Compound 182], 10 to 100 nM. Then `Cn1cc(C(=O)Nc2nc3cc(-c4ccc5c(c4)c(C(=O)N[C@@H](CF)c4ccc(F)cc4)nn5C)ccn3n2)cn1` [Compound 187], with less than 1 nM; and `C[C@H](NC(=O)c1cn(C)c2ccc(-c3ccn4nc(NC(=O)CN5CC[C@@H](CO)C5)nc4c3)cc12)c1ccc(F)cc1` [Compound 62], with less than 1 nM. As for `C[C@H](NC(=O)c1cn(C)c2ccc(-c3ccn4nc(NC(=O)CN5CCC(C#N)CC5)nc4c3)cc12)c1ccc(F)cc1` [Compound 23], the figure is less than 1 nM; as for `C[C@H](NC(=O)c1nn(C)c2ccc(-c3ccn4nc(NC(=O)[C@H]5CCCO5)nc4c3)cc12)c1ccc(F)cc1` [Compound 193], less than 1 nM. Turning to `CO[C@@H](C)C(=O)Nc1nc2cc(-c3ccc4c(c3)c(C(=O)N[C@H](c3ccc(F)cc3)C(F)F)cn4C)ccn2n1` [Compound 165], the EC50 was less than 1 nM. Turning to `C[C@@H]1CN(CC(=O)Nc2nc3cc(-c4ccc5c(c4)c(C(=O)N[C@@H](C)c4ccc(Cl)cc4)cn5C)ccn3n2)C[C@H](C)O1` [Compound 85], the half-maximal effective concentration (EC50) is less than 1 nM. Regarding `Cn1nc(C(=O)N[C@@H](CF)c2ccc(F)cc2)c2cc(-c3ccn4nc(NC(=O)C5CC5)nc4c3)ccc21` [Compound 190], the EC50 is less than 1 nM. `C[C@H](NC(=O)c1cn(C)c2ccc(-c3ccn4nc(NC(=O)CN5CCC6(CC5)OCCO6)nc4c3)cc12)c1ccc(F)cc1` [Compound 27]: the EC50 was less than 1 nM.

As for `CC(=O)Nc1nc2cc(-c3ccc4c(c3)c(C(=O)NC3CCc5cc(F)ccc53)cn4C)ccn2n1` (stereo in doubt) [Compound 127], the 50% effective concentration (EC50) lay in the range of 1000 to 10000 nM. For the compound `COCCOCCOCCOCC(=O)Nc1nc2cc(-c3ccc4c(c3)c(C(=O)N[C@@H](C)c3ccc(F)cc3)cn4C)ccn2n1` [Compound 26], the EC50 was less than 1 nM. As to `COCCOCCOCC(=O)Nc1nc2cc(-c3ccc4c(c3)c(C(=O)N[C@@H](C)c3ccc(F)cc3)cn4C)ccn2n1` [Compound 25], the concentration for a half-maximal effect (EC50) was less than 1 nM. Take `C[C@H](NC(=O)c1cn(C)c2ccc(-c3ccn4nc(NC(=O)CN5CCC[C@@H](O)C5)nc4c3)cc12)c1ccc(F)cc1` [Compound 49]: the EC50 lay in the range of 1 to 10 nM.
